Activity calls are given as the source filed them. The rule behind the calls is not given here.
Tests used:
SAE [1] = assay: Inhibition of CPE-induced MMP1 mRNA expression in human SAE cells after 24 hrs by quantitative RT-PCR analysis; format: functional, cell-based
SAE [2] = assay: Inhibition of MMP1 mRNA expression in human SAE cells at 1 to 10 ug/ml after 24 hrs by quantitative RT-PCR analysis; format: functional, cell-based
[3] = Inhibition of CPE-induced MMP1 mRNA expression in human SAE cells after 24 hrs by quantitative RT-PCR analysis relative to control; format: functional
[4] = Cytotoxicity against human SAE cells at 1 to 10 ug/ml; format: cell-based

O=c1oc2c(O)c(O)cc3c(=O)oc4c(O)c(O)cc1c4c23 [ELLAGIC ACID]
inhibition (SAE [1]): Dose-dependent effect
inhibition (SAE [2]): Active
fold change (FC) [3]: 6
Activity [4]: Non-toxic

Source: ChEMBL document CHEMBL2046420, “Edible Myrciaria vexator fruits: bioactive phenolics for potential COPD therapy” (Bioorg Med Chem, 2012)
